According to ChEMBL document CHEMBL3045586, “Synthesis and antimicrobial activity of some new 4-triazolylmethoxy-2H-chromen-2-one derivatives” (2012):
≈ marks a conversion by molar mass, not a printed value.

How the values were obtained:
[1] = tested on: Aspergillus niger; experiment: Fungicidal activity against Aspergillus niger MTCC 282 after 3 days; assay type: functional; settings: MTCC 282, 72 h
[2] = tested on: Aspergillus flavus; experiment: Antifungal activity against Aspergillus flavus MTCC 277 after 28 to 30 hr by serial dilution method; assay type: functional
[3] = tested on: Aspergillus fumigatus; experiment: Antifungal activity against Aspergillus fumigatus MTCC 343 at […] to […] ug/ml after 28 to 30 hr by cup-plate method; assay type: functional
[4] = tested on: Staphylococcus epidermidis; assay type: functional, MTCC 435
[5] = tested on: Bacillus subtilis; assay type: functional, MTCC 441
[6] = tested on: Pseudomonas aeruginosa; assay type: functional, MTCC 424
[7] = tested on: Candida albicans; assay type: functional, MTCC 227
[8] = tested on: Aspergillus fumigatus; experiment: Antifungal activity against Aspergillus fumigatus MTCC 343 after 28 to 30 hr by serial dilution method; assay type: functional
[9] = tested on: Staphylococcus aureus; experiment: Antibacterial activity against Staphylococcus aureus MTCC 096 after 16 to 18 hr by serial dilution method; assay type: functional
[10] = tested on: Staphylococcus aureus; assay type: functional, MTCC 096
[11] = tested on: Escherichia coli; experiment: Antibacterial activity against Escherichia coli MTCC 443 after 16 to 18 hr by serial dilution method; assay type: functional
[12] = tested on: Salmonella typhi; experiment: Antibacterial activity against Salmonella enterica subsp. enterica serovar Typhi MTCC 733 at […] to […] ug/ml after 16 to 18 hr by cup-plate method; assay type: functional
[13] = tested on: Klebsiella pneumoniae; experiment: Bactericidal activity against Klebsiella pneumoniae MTCC 432 after 3 days; assay type: functional; settings: MTCC 432, 72 h
[14] = tested on: Bacillus subtilis; experiment: Antibacterial activity against Bacillus subtilis MTCC 441 after 16 to 18 hr by serial dilution method; assay type: functional
[15] = tested on: Pseudomonas aeruginosa; experiment: Antibacterial activity against Pseudomonas aeruginosa MTCC 424 after 16 to 18 hr by serial dilution method; assay type: functional
[16] = tested on: Staphylococcus epidermidis; experiment: Antibacterial activity against Staphylococcus epidermidis MTCC 435 after 16 to 18 hr by serial dilution method; assay type: functional
[17] = tested on: Escherichia coli; assay type: functional, MTCC 443
[18] = tested on: Klebsiella pneumoniae; assay type: functional, MTCC 432
[19] = tested on: Aspergillus niger; experiment: Antifungal activity against Aspergillus niger MTCC 282 at […] to […] ug/ml after 28 to 30 hr by cup-plate method; assay type: functional
[20] = tested on: Candida albicans; experiment: Fungicidal activity against Candida albicans MTCC 227 after 3 days; assay type: functional; settings: MTCC 227, 72 h
[21] = tested on: Klebsiella pneumoniae; experiment: Antibacterial activity against Klebsiella pneumoniae MTCC 432 after 16 to 18 hr by serial dilution method; assay type: functional
[22] = tested on: Salmonella typhi; experiment: Antibacterial activity against Salmonella enterica subsp. enterica serovar Typhi MTCC 733 after 16 to 18 hr by serial dilution method; assay type: functional
[23] = tested on: Aspergillus flavus; experiment: Antifungal activity against Aspergillus flavus MTCC 277 at […] to […] ug/ml after 28 to 30 hr by cup-plate method; assay type: functional
[24] = tested on: Candida albicans; experiment: Antifungal activity against Candida albicans MTCC 227 after 28 to 30 hr by serial dilution method; assay type: functional
[25] = tested on: Aspergillus niger; experiment: Antifungal activity against Aspergillus niger MTCC 282 after 28 to 30 hr by serial dilution method; assay type: functional
[26] = tested on: Staphylococcus aureus; experiment: Bactericidal activity against Staphylococcus aureus MTCC 096 after 3 days; assay type: functional; settings: MTCC 096, 72 h
[27] = tested on: Escherichia coli; experiment: Bactericidal against Escherichia coli MTCC 443 after 3 days; assay type: functional; settings: MTCC 443, 72 h

Structure (SMILES) | MIC [2] [mg/L] | inhibition zone (IZ) [3] [mm] | inhibition zone (IZ) [4] [mm] | inhibition zone (IZ) [5] [mm] | inhibition zone (IZ) [6] [mm] | inhibition zone (IZ) [7] [mm] | MIC [8] [mg/L] | MIC [9] [mg/L] | inhibition zone (IZ) [10] [mm] | MIC [11] [mg/L] | inhibition zone (IZ) [12] [mm] | MIC [14] [mg/L] | MIC [16] [mg/L] | inhibition zone (IZ) [18] [mm] | inhibition zone (IZ) [19] [mm] | MIC [21] [mg/L] | MIC [22] [mg/L] | inhibition zone (IZ) [23] [mm] | MIC [24] [mg/L] | MIC [25] [mg/L] | also measured
COc1cc(-c2nnc(COc3cc(=O)oc4ccccc34)[nH]2)cc(OC)c1OC | 25 (≈ 61.1 µM) | 11 | 12 | 14 | <10 | 12 | 25 (≈ 61.1 µM) | 6.25 (≈ 15.3 µM) | 14 | 12.5 (≈ 30.5 µM) | 14 | 6.25 (≈ 15.3 µM) | 12.5 (≈ 30.5 µM) | 11 | 14 | 12.5 (≈ 30.5 µM) | 6.25 (≈ 15.3 µM) | <10 | 12.5 (≈ 30.5 µM) | 6.25 (≈ 15.3 µM) | MFC [1]: 25 mg/L (≈ 61.1 µM); MBC [13]: 25 mg/L (≈ 61.1 µM); MIC [15]: 25 mg/L (≈ 61.1 µM); inhibition zone (IZ) [17]: 12 mm; MFC [20]: 25 mg/L (≈ 61.1 µM); MBC [26]: 25 mg/L (≈ 61.1 µM); MBC [27]: 25 mg/L (≈ 61.1 µM)
O=c1cc(OCc2nnc(-c3ccc(F)cc3)[nH]2)c2ccccc2o1 | 12.5 (≈ 37.1 µM) | 12 | <10 | <10 | <10 | 14 | 12.5 (≈ 37.1 µM) | 6.25 (≈ 18.5 µM) | 13 | 12.5 (≈ 37.1 µM) | 11 | 50 (≈ 148 µM) | 50 (≈ 148 µM) | 13 | 13 | 6.25 (≈ 18.5 µM) | 12.5 (≈ 37.1 µM) | 11 | 6.25 (≈ 18.5 µM) | 12.5 (≈ 37.1 µM) | MFC [1]: 25 mg/L (≈ 74.1 µM); MBC [13]: 25 mg/L (≈ 74.1 µM); MIC [15]: 25 mg/L (≈ 74.1 µM); inhibition zone (IZ) [17]: 11 mm; MFC [20]: 12.5 mg/L (≈ 37.1 µM); MBC [26]: 12.5 mg/L (≈ 37.1 µM); MBC [27]: 25 mg/L (≈ 74.1 µM)
Cc1ccc(-c2nnc(COc3cc(=O)oc4ccccc34)[nH]2)cc1 | 25 (≈ 75 µM) | 11 | <10 | 11 | 11 | 15 | 25 (≈ 75 µM) | 12.5 (≈ 37.5 µM) | 11 | 12.5 (≈ 37.5 µM) | 12 | 12.5 (≈ 37.5 µM) | 50 (≈ 150 µM) | 13 | 13 | 12.5 (≈ 37.5 µM) | 12.5 (≈ 37.5 µM) | <10 | 6.26 (≈ 18.8 µM) | 6.25 (≈ 18.7 µM) | MIC [15]: 12.5 mg/L (≈ 37.5 µM); inhibition zone (IZ) [17]: 11 mm
COc1ccc(-c2nnc(COc3cc(=O)oc4ccccc34)[nH]2)cc1 | 25 (≈ 71.6 µM) | <10 | <10 | 11 | <10 | 14 | 25 (≈ 71.6 µM) | 6.25 (≈ 17.9 µM) | 13 | 12.5 (≈ 35.8 µM) | <10 | 12.5 (≈ 35.8 µM) | 25 (≈ 71.6 µM) | 14 | 12 | 6.25 (≈ 17.9 µM) | 25 (≈ 71.6 µM) | <10 | 6.25 (≈ 17.9 µM) | 6.25 (≈ 17.9 µM) | MIC [15]: 50 mg/L (≈ 143 µM); inhibition zone (IZ) [17]: 11 mm
O=c1cc(OCc2nnc(-c3ccc(O)cc3)[nH]2)c2ccccc2o1 | 25 (≈ 74.6 µM) | 12 | 11 | <10 | <10 | 15 | 12.5 (≈ 37.3 µM) | 12.5 (≈ 37.3 µM) | 11 | 6.25 (≈ 18.6 µM) | 10 | 50 (≈ 149 µM) | 12.5 (≈ 37.3 µM) | 14 | 12 | 6.25 (≈ 18.6 µM) | 25 (≈ 74.6 µM) | <10 | 6.25 (≈ 18.6 µM) | 12.5 (≈ 37.3 µM) | MIC [15]: 50 mg/L (≈ 149 µM); inhibition zone (IZ) [17]: 14 mm
O=c1cc(OCc2nnc(-c3cccs3)[nH]2)c2ccccc2o1 | 12.5 (≈ 38.4 µM) | 12 | 11 | 11 | 12 | 15 | 12.5 (≈ 38.4 µM) | 6.25 (≈ 19.2 µM) | 14 | 6.25 (≈ 19.2 µM) | <10 | 12.5 (≈ 38.4 µM) | 12.5 (≈ 38.4 µM) | 15 | 15 | 6.25 (≈ 19.2 µM) | 25 (≈ 76.8 µM) | 13 | 6.25 (≈ 19.2 µM) | 6.25 (≈ 19.2 µM) | MFC [1]: 12.5 mg/L (≈ 38.4 µM); MBC [13]: 25 mg/L (≈ 76.8 µM); MIC [15]: 12.5 mg/L (≈ 38.4 µM); inhibition zone (IZ) [17]: 14 mm; MFC [20]: 12.5 mg/L (≈ 38.4 µM); MBC [26]: 6.25 mg/L (≈ 19.2 µM); MBC [27]: 12.5 mg/L (≈ 38.4 µM)
O=c1cc(OCc2nnc(-c3ccco3)[nH]2)c2ccccc2o1 | 12.5 (≈ 40.4 µM) | <10 | <10 | <10 | 11 | 13 | 25 (≈ 80.8 µM) | 6.25 (≈ 20.2 µM) | 15 | 6.25 (≈ 20.2 µM) | <10 | 50 (≈ 162 µM) | 25 (≈ 80.8 µM) | 14 | 14 | 6.25 (≈ 20.2 µM) | 25 (≈ 80.8 µM) | 12 | 6.25 (≈ 20.2 µM) | 6.25 (≈ 20.2 µM) | MFC [1]: 12.5 mg/L (≈ 40.4 µM); MBC [13]: 25 mg/L (≈ 80.8 µM); MIC [15]: 12.5 mg/L (≈ 40.4 µM); inhibition zone (IZ) [17]: 15 mm; MFC [20]: 25 mg/L (≈ 80.8 µM); MBC [26]: 12.5 mg/L (≈ 40.4 µM); MBC [27]: 12.5 mg/L (≈ 40.4 µM)
O=c1cc(OCc2nnc(-c3ccc(Br)cc3)[nH]2)c2ccccc2o1 | 12.5 (≈ 31.4 µM) | <10 | <10 | 12 | <10 | 12 | 25 (≈ 62.8 µM) | 12.5 (≈ 31.4 µM) | 11 | 6.25 (≈ 15.7 µM) | 11 | 12.5 (≈ 31.4 µM) | 50 (≈ 126 µM) | 13 | 11 | 6.25 (≈ 15.7 µM) | 12.5 (≈ 31.4 µM) | 12 | 6.25 (≈ 15.7 µM) | 12.5 (≈ 31.4 µM) | MIC [15]: 25 mg/L (≈ 62.8 µM); inhibition zone (IZ) [17]: 15 mm
O=c1cc(OCc2nnc(-c3ccccc3)[nH]2)c2ccccc2o1 | 12.5 (≈ 39.1 µM) | 11 | 12 | 11 | 11 | 14 | 12.5 (≈ 39.1 µM) | 12.5 (≈ 39.1 µM) | 11 | 12.5 (≈ 39.1 µM) | <10 | 12.5 (≈ 39.1 µM) | 12.5 (≈ 39.1 µM) | 11 | 13 | 12.5 (≈ 39.1 µM) | 25 (≈ 78.3 µM) | 12 | 6.25 (≈ 19.6 µM) | 12.5 (≈ 39.1 µM) | MIC [15]: 12.5 mg/L (≈ 39.1 µM); inhibition zone (IZ) [17]: 12 mm
O=C(O)c1cn(C2CC2)c2cc(N3CCNCC3)c(F)cc2c1=O [CIPROFLOXACIN] |  |  | 15 | 18 | 16 |  |  |  | 17 |  | 19 | 6.25 (≈ 18.9 µM) | 6.25 (≈ 18.9 µM) | 17 |  | 6.25 (≈ 18.9 µM) | 6.25 (≈ 18.9 µM) |  |  |  | 
Clc1ccc(COC(Cn2ccnc2)c2ccc(Cl)cc2Cl)c(Cl)c1 (stereo not drawn) [MICONAZOLE] | 6.25 (≈ 15 µM) | 14 |  |  |  | 15 | 12.5 (≈ 30 µM) |  |  |  |  |  |  |  | 17 |  |  | 17 | 6.25 (≈ 15 µM) | 6.25 (≈ 15 µM) | 
O=c1cc(OCc2nnc(-c3ccc(Cl)cc3)[nH]2)c2ccccc2o1 | 12.5 (≈ 35.3 µM) | <10 | <10 | 11 | 12 | 14 | 25 (≈ 70.7 µM) | 12.5 (≈ 35.3 µM) | 12 | 6.25 (≈ 17.7 µM) | 12 | 12.5 (≈ 35.3 µM) | 50 (≈ 141 µM) | 12 | 12 | 12.5 (≈ 35.3 µM) | 12.5 (≈ 35.3 µM) | 12 | 6.25 (≈ 17.7 µM) | 12.5 (≈ 35.3 µM) | MIC [15]: 12.5 mg/L (≈ 35.3 µM); inhibition zone (IZ) [17]: 13 mm
